Assay results reported in ChEMBL document CHEMBL5226327, “Source and exploration of the peptides used to construct peptide-drug conjugates” (Eur J Med Chem, 2021).
pIC50: −log10 of the molar value. Positions of bridges follow the written chain, without caps; N, C: chain ends. Non-standard residues stand in square brackets, D forms with d. Residues, ends and D or L forms follow the SMILES beside them. Pen = CC(C)(S)[C@H](N)C(=O)O

Key:
A-375 = experiment: Inhibition of cell adhesion in human A-375 cells; format: functional, cell-based
HBL-100 = experiment: Inhibition of cell adhesion in human HBL-100 cells; format: functional, cell-based
HT-1080 = experiment: Inhibition of cell adhesion in human HT-1080 cells; format: functional, cell-based
Integrin alpha-5/beta-1 = Integrin alpha-5/beta-1 (Homo sapiens, UniProt P05556+P08648); experiment: Binding affinity to integrin alpha5beta1 (unknown origin) assessed as inhibition of integrin and fibronectin interaction; format: protein-complex assay
Chain of Integrin alpha-5/beta-1 (P05556 21-798 limits assumed): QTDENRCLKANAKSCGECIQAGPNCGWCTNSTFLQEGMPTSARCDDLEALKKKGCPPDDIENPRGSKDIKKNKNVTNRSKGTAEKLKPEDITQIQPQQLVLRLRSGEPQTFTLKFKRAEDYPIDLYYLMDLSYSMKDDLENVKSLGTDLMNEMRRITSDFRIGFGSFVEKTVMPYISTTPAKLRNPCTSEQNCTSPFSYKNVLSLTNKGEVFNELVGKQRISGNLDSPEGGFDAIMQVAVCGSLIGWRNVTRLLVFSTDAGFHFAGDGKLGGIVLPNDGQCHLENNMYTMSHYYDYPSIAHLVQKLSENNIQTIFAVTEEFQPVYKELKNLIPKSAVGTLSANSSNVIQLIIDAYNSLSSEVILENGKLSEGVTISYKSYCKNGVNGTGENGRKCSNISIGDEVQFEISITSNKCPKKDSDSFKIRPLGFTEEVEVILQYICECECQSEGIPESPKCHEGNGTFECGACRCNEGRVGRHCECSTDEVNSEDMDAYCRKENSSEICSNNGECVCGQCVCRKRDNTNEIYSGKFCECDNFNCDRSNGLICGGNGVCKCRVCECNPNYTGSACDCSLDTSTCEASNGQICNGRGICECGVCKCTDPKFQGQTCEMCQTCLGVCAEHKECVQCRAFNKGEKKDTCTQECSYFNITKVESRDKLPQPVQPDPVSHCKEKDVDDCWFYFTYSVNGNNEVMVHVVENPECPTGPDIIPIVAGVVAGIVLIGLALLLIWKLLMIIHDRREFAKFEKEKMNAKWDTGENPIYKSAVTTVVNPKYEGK
Chain of Integrin alpha-5/beta-1 (P08648 42-894 limits assumed): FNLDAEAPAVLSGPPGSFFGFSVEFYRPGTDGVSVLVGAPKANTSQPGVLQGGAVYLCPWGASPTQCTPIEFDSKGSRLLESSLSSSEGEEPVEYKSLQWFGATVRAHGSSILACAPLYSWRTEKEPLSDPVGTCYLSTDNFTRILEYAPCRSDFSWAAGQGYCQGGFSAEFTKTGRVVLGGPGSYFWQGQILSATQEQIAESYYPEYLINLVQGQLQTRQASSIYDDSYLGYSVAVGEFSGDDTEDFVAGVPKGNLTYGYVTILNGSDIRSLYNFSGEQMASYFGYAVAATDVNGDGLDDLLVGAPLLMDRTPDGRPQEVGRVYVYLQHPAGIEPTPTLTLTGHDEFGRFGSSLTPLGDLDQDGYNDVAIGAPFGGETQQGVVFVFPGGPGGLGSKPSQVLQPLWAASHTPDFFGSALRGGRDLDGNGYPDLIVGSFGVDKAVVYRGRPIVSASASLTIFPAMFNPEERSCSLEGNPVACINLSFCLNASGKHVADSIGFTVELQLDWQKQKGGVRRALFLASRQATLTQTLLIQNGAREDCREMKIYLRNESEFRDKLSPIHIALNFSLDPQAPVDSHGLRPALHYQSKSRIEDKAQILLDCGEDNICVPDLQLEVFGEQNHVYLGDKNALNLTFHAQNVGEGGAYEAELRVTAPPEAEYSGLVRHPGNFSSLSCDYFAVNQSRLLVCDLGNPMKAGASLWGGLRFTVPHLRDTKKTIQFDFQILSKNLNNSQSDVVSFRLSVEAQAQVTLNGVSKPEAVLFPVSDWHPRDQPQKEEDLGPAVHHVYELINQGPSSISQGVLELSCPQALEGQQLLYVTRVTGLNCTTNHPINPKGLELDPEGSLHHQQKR
Chain of Integrin alpha-5/beta-1 (P08648 895-1049 limits assumed): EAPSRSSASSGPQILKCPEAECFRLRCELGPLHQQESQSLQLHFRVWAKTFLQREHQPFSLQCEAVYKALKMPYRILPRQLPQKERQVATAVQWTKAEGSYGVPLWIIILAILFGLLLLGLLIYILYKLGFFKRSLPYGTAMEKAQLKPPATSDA

| pIC50 (A-375) | pIC50 (HBL-100) | pIC50 (HT-1080) | pIC50 (Integrin alpha-5/beta-1) | Structure (SMILES) |
| --- | --- | --- | --- | --- |
| 7.00 | 7.00 | 7.00 | – | CC(=O)N[C@H]1CSSC(C)(C)[C@@H](C(N)=O)NC(=O)[C@H](Cc2ccccc2)NC(=O)[C@H](CC(=O)O)NC(=O)CNC(=O)[C@H](CCCNC(=N)N)NC1=O (Ac-CRGDF[Pen]-NH2; disulfide 1-6) |
| – | – | – | 5.81 | CC[C@H](C)[C@H](NC(=O)[C@@H](N)C(C)C)C(=O)N[C@@H](CC(C)C)C(=O)N[C@H](C(=O)N[C@@H](CC(C)C)C(=O)N[C@@H](Cc1ccccc1)C(=O)O)C(C)C (H-VILVLF-OH) |
